The subject of data set [1] is E. coli ATCC 2592. Conditions: ATCC 2592. As to the method:
(§1) The bacteria tested were P. aeruginosa American Type Culture Collection Number (ATCC) 10145, E. coli ATCC 2592, and S. aureus (methicillin reseistant) ATTC 33591.
(§2) All experiments were compared to bacterial growth under optimal growth conditions (37° C., pH 7.0, absence of additional salt, growth media—referred to as standard growth conditions). In each plate, no growth control (media alone), positive growth control (bacteria with no test sample), positive antimicrobial controls (agents with known antimicrobial activity) and test compounds were tested.
(§3) The plates were incubated overnight, and the relative percent growth determined by optical density at 620 nm (OD620) using a […] […] PLUS™. […] All samples were tested in duplicate and each assay was repeated at least twice. […] IC50 and MIC are reported in μg/ml.

The subject of data set [2] is P. aeruginosa ATCC 10145. Conditions: ATCC 10145. As to the method: as §1, §2, §3
Data set [3] concerns S. aureus (methicillin resistant) ATCC 33591. As to conditions: ATCC 33591. As to the method:
as §1, §2, §3

Data set [4] relates to C. albicans 10231. The format is cell-based. As to conditions: 10231. The procedure: (§4) The MIC and IC50 values were determined by a broth microdilution method according to guidelines of the National Committee for Clinical Laboratory Standard as follows: In 96-well tissue culture plates, a fixed volume of bacterial suspension in 2× broth (as defined below) was added to the mixtures or individual compounds dispensed at concentrations varying from 1,000 to 1 μg/ml derived from serial two-fold dilutions in sterile water. The bacteria tested were P. aeruginosa American Type Culture Collection Number (ATCC) 10145, E. coli ATCC 2592, and S. aureus (methicillin reseistant) ATTC 33591.
(§5) The plates were incubated overnight, and the relative percent growth determined by optical density at 620 nm (OD620) using a TITERTEK MULTISKAN PLUS™. […] IC50 values were calculated using a sigmoidal curve fitting software program (GRAPHPAD,™ ISI Software,™ San Diego, Calif.). All samples were tested in duplicate and each assay was repeated at least twice. In the following table, KFAK is the repeat unit and multimers of KFAK were tested. IC50 and MIC are reported in μg/ml.
(§6) Because the antibacterial activity of the periodic peptides was so promising, further experiments were performed to determine if the periodic peptides also had antifungal activity. The experimental design was similar to that above, with accommodation made for fungal growth requirements, including the use of Sabouraud Dextrose Broth (SDB) and Sabouraud Dextrose Agar (SDA) slants.

Data set [5] has as its system Cr. Neoformans 32045. It counts as cell-based. As to the method:
as §4, §5, §6

A short description of data set [6]: Red blood cell toxicity. It counts as cell-based. Conditions: red blood cells (RBC).
Data set [7] relates to Red blood cells (RBC). The data set can be described thus: Red blood cell toxicity. The format is cell-based.
For data set [8], the system named is HeLa cell line. The data set can be described thus: HeLa MTS cellular reduction toxicity assay. The format is cell-based. As to conditions: for TX50: 24 h, MTS. The procedure: The RBC protocol was from Blondelle (2000) and is described generally as follows: The toxicity toward the HeLa cell line was determined using a MTS (3-(4-5-dimethylthiazol-2-yl)-5-(3carboxymethoxyphenyl)-2-(4-sulfophenyl)-2H-tetrazolium, sodium salt) cellular reduction assay. MTS (2 mg/mL) was prepared in Dulbecco PBS (pH 7.35), filtered, aliquoted and stored at minus 20° C. In 96 well flat bottomed plates, cell suspensions (250 μL of 6×10^4 cell/mL in each well) were incubated for 48 h at 37° C. (5% CO2 incubator). The peptides (50 μL) were then added to the cell monolayer (following aspiration of the media from each well and addition of 50 μL of Dulbecco's Modified Eagles Medium) at varying concentrations derived from serial 2-fold dilutions, and the plates incubated for 24 h at 37° C. (5% CO2 incubator). Proliferation was then determined by adding a solution of phenazine methosulfate (PMS: 0.92 mg/mL in DPBS) to MTS at a 1:20 ration just prior to the assay. Twenty microliters MTS-PMS solution were added to each well and the plates incubated for 1 h at 37° C. (5% CO2 incubator). The relative percent toxicity was determined by comparing the absorbance at 490 nm of each peptide to the absorbance of cells without peptide. The TX50 (concentration required for 50% toxicity) was calculated using a sigmoidal curve fitting software (Graphpad Prism).

Data set [9] concerns P. aeruginosa ATCC 15442. Nature of the data set: HMARQ biocidal kill activity. The format is cell-based. Conditions: P. aeruginosa ATCC 15442 (gram−). The procedure:
(§7) Biocide efficacy protocols were improved by reducing sample size, organizing the test material into an array format, implementing most probable number (MPN) quantitation and using multi-channel liquid handling equipment. We call the new method “high-throughput microanalysis and rapid quantitation” or “HMARQ.” HMARQ is directly applicable to current industrial efficacy tests such as multi-cycle preservation challenge or time course disinfection tests.
(§8) HMARQ is performed in a high throughput plate, such as 96-well microtiter plates. Typical sample volumes have been reduced down to 200 to 300 μL, but can be reduced further if desired. In these samples, no more than 10% of the total volume will be composed of the biocide and organism solution, and all non-matrix additions are normalized for all samples.
(§9) The sample matrix is first inoculated with the desired concentration of microorganisms. Inoculated sample matrix is then added to the 96-well assay block containing the biocide(s) under study. Each sample block contains biocide treated samples and untreated control samples (lacking biocide). Once the samples are prepared, the entire block of samples is mixed by vortexing until each sample is homogenous. In general, the study starts once mixing is complete, and samples are removed as required for the analysis. When Kill Time testing (rate of biocide activity) is performed, the microorganisms are added after biocide addition to the samples, allowing for rapid mixing and analysis.
(§10) Bacterial concentration (CFU/mL) is determined using the most probable number method (MPN). The contaminated solution is serially diluted until the “no growth” endpoint is reached. The endpoint represents the MPN and is expressed in units of the bacterial concentration. A serial 1:10 dilution will yield a bacterial concentration resolution of 1 log and the log reduction is determined by comparing the concentration of organisms in a treated sample to the concentration of organisms in untreated samples. For example, if a sample requires four 1:10 dilutions before bacterial growth is lost then the MPN for bacterial concentration in the sample is less than or equal to 1×10^4 CFU/mL (1E4). […] This method of enumeration is generally applicable to all non-filamentous microorganisms.
(§11) Media included Tryptic Soy Broth (TSB) for bacteria and Sabouraud Dextrose Broth (SDB) for fungi. These are available commercially and prepared according to the manufacturers instructions. Indicator medium was TSB/R for bacteria and SDB/R for fungi. These were made by addition of 50 μM filter sterilized Resazurin to the sterilized and cooled medium. Tryptic Soy agar plates (TSA) and SDA slants were used to provide inoculant for bacterial and fungal cultures. The indicator dye appeared pink or white when bacterial growth was present.
(§12) Using the HMARQ test described above, periodic peptides were generated and tested for Kill Activity. In this experiment, a broader range of peptidezs were tested for activity. Units are expressed as ppm (μg/mL) needed for 3.5 log kill at 15 min or 24 hour and the results are shown below.

Data set [10] deals with Staph. aureus ATCC 6538. The data set can be described thus: HMARQ biocidal kill activity. As to conditions: Staph. aureus ATCC 6538 (gram+). It counts as cell-based. As to the method: as §7, §8, §9, §10, §11, §12
Setting [11] is: RBCs, concentration required for 50% toxicity, read-out: TX50.

Read-outs that look alike come from different tables or passages of the source. Where no end group is shown, it is not given here.

Consider “FKAFKAFKAFKAFKAFKAFKA [FKA (7), FKA FKA FKA FKA FKA FKA FKA]”, for which the concentration for half-maximal inhibition (IC50) (commonly the midpoint of a concentration-inhibition curve) in [1] is 7 µg/mL; in data set [2], 23 µg/mL; in [3], greater than 500 µg/mL; in data set [4], 203 µg/mL; in data set [5], 3.2 µg/mL. Moreover, the MIC (as a rule, the smallest concentration in the dilution series that meets the test's criterion for growth inhibition) in data set [1] is 16 to 32 µg/mL; in [2], 32 µg/mL; in data set [3], greater than 500 µg/mL; in data set [4] it was 250 to 500 µg/mL; in data set [5], 4 to 8 µg/mL. For the same substance, in data set [6] (setting [11]), the HC50 at 24 h was greater than 500 µg/mL. The “% kill at 250 μg/ml” value in data set [7] is recorded as 11%. Further, the “% kill at 500 μg/ml” value in data set [8] was determined as 103.3%. Also, the TX50 in [8] is greater than 500 µg/mL. Further, the “ppm needed for 3.5 log kill at 15 min” value was 125 ppm in data set [9] and 500 ppm in data set [10]. Moreover, the entries for the “ppm needed for 3.5 log kill at 24 hr” value in [9] and in data set [10] were 63 ppm and 500 ppm, respectively.

As for “H-FAKKFAKKFAKKFAKKFAKKFAKK-OH [FAKK (6), FAKK FAKK FAKK FAKK FAKK FAKK]”, the IC50 in data set [1] stood at 11 µg/mL; in data set [2] it was 21 µg/mL; in data set [3], 108 µg/mL; in [4] it was 110 µg/mL; in [5], 7.6 µg/mL. The MIC in [1] is 17 to 32 µg/mL; in data set [2], 62 µg/mL; in [3], greater than 250 µg/mL; in data set [4], 125 to 250 µg/mL; in [5] it was 16 to 32 µg/mL. The HC50 at 24 h in data set [6] is greater than 500 µg/mL. For the same substance, in data set [7], the “% kill at 250 μg/ml” value turned out to be 7%. Also, the “% kill at 500 μg/ml” value in data set [8] is 28.3%. Moreover, the TX50 in [8] came out at 359 µg/mL. Also, the “ppm needed for 3.5 log kill at 15 min” value in [9] and in data set [10] was greater than 500 ppm in each case. The “ppm needed for 3.5 log kill at 24 hr” value in data set [9] is on record as 16 ppm; in data set [10] it was 250 ppm.

For the substance “H-FKAFKAFKAFKAFKAFKAFKAFKA-OH [FKA (8), FKA FKA FKA FKA FKA FKA FKA FKA]”, the IC50 is 7 µg/mL in data set [1]; 19 µg/mL in data set [2]; 74 µg/mL in data set [3]; 199 µg/mL in data set [4]; 3.9 µg/mL in [5]. The MIC was 16 to 32 µg/mL in [1]; 25 µg/mL in [2]; greater than 500 µg/mL in data set [3]; 250 to 500 µg/mL in data set [4]; 16 to 32 µg/mL in data set [5]. In data set [6] (setting [11]), the HC50 at 24 h was greater than 500 µg/mL. Besides, the “% kill at 250 μg/ml” value in data set [7] is reported as 10%. For the same substance, the “% kill at 500 μg/ml” value in data set [8] is on record as 60.4%. The same substance showed a TX50 in [8] greater than 500 µg/mL. For the same substance, the “ppm needed for 3.5 log kill at 15 min” value in data set [9] is 125 ppm; in [10] it was 8 ppm. Also, the “ppm needed for 3.5 log kill at 24 hr” value was determined as 16 ppm in data set [9] and 125 ppm in [10].

Consider “H-FKAFKAFKAFKAFKAFKAFKAFKAFKA-OH [FKA (9), FKA FKA FKA FKA FKA FKA FKA FKA FKA]”, for which the IC50 was determined as 4 µg/mL in data set [1]; 16 µg/mL in [2]; 17 µg/mL in [3]; 195 µg/mL in data set [4]; 16 µg/mL in data set [5]. Also, the MIC in data set [1] was 31 to 62 µg/mL; in data set [2], 20 µg/mL; in data set [3], 31 to 62 µg/mL; in data set [4], 250 to 500 µg/mL; in data set [5], 62 to 125 µg/mL. In addition, the HC50 at 24 h in [6] (setting [11]) is greater than 500 µg/mL. Moreover, the “% kill at 250 μg/ml” value in data set [7] turned out to be 24%. Besides, the “% kill at 500 μg/ml” value in [8] stood at 20.9%. This substance also yielded a TX50 in data set [8] of 389 µg/mL. For the same substance, the “ppm needed for 3.5 log kill at 15 min” value in data set [9] worked out at 4 ppm; in data set [10] it was 8 ppm. For the same substance, the “ppm needed for 3.5 log kill at 24 hr” value is listed as 4 ppm in data set [9] and 125 ppm in data set [10].

The values are drawn from patent publication US7091185B2, “Periodic antimicrobial peptides” (Dow Global Technologies Inc., priority 2003, dated 2006).
